Where “and” joins values, the source holds several entries; their conditions need not be identical. Identical values can stand only once. Like-named read-outs stand apart in the source and are kept apart here.
How the values were obtained:
[1] = test system: OVCAR8 cell-derived xenograft; experiment: Xenografts growth after 1Ais treatment in mice; assay type: in vivo
eIF1A-RPS10 interaction = target: T1, eIF1A-RPS10 interaction (Homo sapiens, UniProt P46783+P47813); experiment: Split-Renilla luciferase eIF1A-RPS10 interaction screen, dose-response; assay type: biochemical; conditions: Appendix Table S1; read-out: IC50 from the split RL screen
T1 construct: made in house; host or cells: E. coli BL21 (PRSFduet); unpurified lysate supernatant
T1 sequence (P47813 whole entry, one chain of several): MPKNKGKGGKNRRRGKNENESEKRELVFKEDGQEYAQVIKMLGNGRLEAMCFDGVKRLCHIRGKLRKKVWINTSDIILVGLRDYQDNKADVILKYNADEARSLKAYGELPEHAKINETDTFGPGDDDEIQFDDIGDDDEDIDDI
Description: While knockdown (KD) studies of eIF1A provided valuable insights into its role in mammalian cell translation (Sehrawat et al, [2019]), this approach presents several limitations. First, it fails to elucidate the functional significance of the opposing functions of eIF1A N- and C-terminal tails with respect to scanning and start codon fidelity. Second, the extended duration required for achieving efficient knockdown, 48–72 h, impairs our ability to differentiate between direct and indirect effects. To overcome these constraints, we set out to develop small-molecule inhibitors targeting eIF1A. Guided by structural and biochemical studies showing eIF1A binding to the small ribosomal subunit at the A-site and interacting directly with RPS10 through its N-terminal tail (Haimov et al, [2017]; Passmore et al, [2007]; Sehrawat et al, [2019]), our approach focused on disrupting the interaction between eIF1A and RPS10. […] The interaction between eIF1A and RPS10 brings the two parts together, leading to the reconstitution of the enzymatic activity (Haimov et al, [2017]). In this system, the spatial arrangement of the two RL parts is critical for the enzymatic activity, making it sensitive not only to direct interference with the interacting proteins but also to changes in the conformation of the fused proteins. In the eIF1A-RPS10 split-RL pair, the C-terminus of eIF1A is fused to N-RL (Fig. 1A), in order to maintain the NTT accessible to RPS10 binding. This pair was cloned and expressed in bacteria as recombinant proteins and used to screen a library of ~50,000 small molecules from diverse sources (Ashkenazi et al, [2017]).
eIF1A-ΔC-Renilla and RPS10-ΔN-Renilla were transformed into BL21 E. coli by heat shock transformation. A bacterial starter of 5 ml LB was incubated overnight at 37 °C and transferred into 1 L LB for incubation at 37 °C until OD ~ 0.5–0.7. Next, protein expression was induced with 0.5 mM IPTG, and bacterial cells were incubated overnight at 16 °C. Bacterial cell pellet was collected after centrifugation (3000 RPM, 15 min), resuspended in 20 ml TKE buffer (Tris 10 mM, KCl 100 mM, EDTA 0.1 mM), sonicated (bath sonicator, 24 cycles of 30 s) and centrifuged again (15000 RPM, 30 min). Supernatants were collected, analyzed for RL activity, and then used for high throughput drug screen (HTS) at the Weizmann G-INCPM HTS unit as described (Ashkenazi et al, [2017]). In addition to the standard controls of this protocol, the two parts of the split RL, without eIF1A or RPS10, were tested as controls. Selected compounds were purchased from Sigma-Aldrich and Enamine. Compound powders were resuspended in DMSO for a final concentration of 10 mM and stored at −20 °C.

[2] = test system: IRF7 5'UTR firefly luciferase reporter in HEK293T cells; conditions: for LONG (summary - All), normalized to DMSO / SHORT (summary - All), normalized to DMSO: individual replicates, outliers excluded, DMSO = 1; for average ( long vs short ratio): summary - All;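 on all read-outs here: luciferase signal corrected by a co-transfected GFP reporter for transfection efficiency, read after overnight compound exposure, with Long and Short reporters differing in 5'UTR length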
[3] = test system: cap-proximal AUG GFP reporter in HEK293T cells; assay type: cell-based; conditions: GFP WB densitometry; 20 µM overnight; dmso 0.965946
Source text: Translation from an AUG preceded by a very short 5'UTR (less than 30 nt) is usually inefficient and frequently bypassed, resulting in initiation from a downstream AUG, a phenomenon known as leaky scanning. […] To examine the impact of 1Ais on short 5'UTR initiation, we used a GFP reporter gene containing an AUG located 16 nt downstream from the 5' end followed by a second in-frame downstream AUG (Fig. 1F; Appendix Fig. S1B). Cells were transfected with this GFP reporter gene followed by exposure to DMSO (vehicle) and 1Ais. Initiations from upstream (US) or downstream (DS) AUGs were determined by western blot (WB) with anti-GFP antibodies and the ratio between the US and DS AUG was determined.
For the analysis of translation from very short 5'UTR and Leaky scanning, HEK293T cells were transfected with a GFP (20 ng/well) reporter gene driven by a cap-proximal and downstream AUGs (Elfakess et al, [2011]) together with a luciferase reporter gene (100 ng/well) as normalizing control and treated with 20 µM of 1Ais as described above. GFP levels were determined by Western blot (WB) (GFP antibody, Abcam #ab290) and quantified by densitometry (ImageJ) and normalized to the measured luciferase activity.
HEK293T cells were transfected with the GFP reporter gene schematically shown on the top. The first
AUG is […] from the 5’ end and the downstream AUG is in the same frame. Six hours after transfection, cells were treated with 1Ais. After overnight exposure to 1Ais, GFP expression was analyzed by WB using anti -GFP antibodies.
US/DS ratio was determined by densitometry and represents the long protein expression (upstream AUG, US) vs the […]
biological replicates. (C-D) Analysis of reporter genes mRNA levels after 1Ais treatment.

[4] = test system: CUG/GUG vs AUG start codon luciferase reporters in HEK293T cells; experiment: Near-cognate AUG starting codon fidelity reporter assay (GUG, CUG vs AUG); assay type: cell-based; conditions: for CUG vs AUG (%): CUG start codon reporter relative to AUG reporter (AUG = 100); for CUG vs AUG (%) / GUG vs AUG (%): compound at 20uM (summary head), single-experiment calculation; for GUG vs AUG (%): GUG start codon reporter relative to AUG reporter (AUG = 100); for GUG vs AUG data (%): individual repeat; for GUG vs AUG (%) Average: summary average of repeats, DMSO control average […]
Description: We next considered the importance of eIF1A in controlling start codon fidelity in yeast and mammalian cells (Martin-Marcos et al, [2011]; Martin-Marcos et al, [2017]; Sehrawat et al, [2019]; She et al, [2023]) and tested how inhibition of eIF1A by 1Ais affects the initiation from near-cognate AUG. The effect of 1Ais was analyzed using firefly luciferase reporters bearing either AUG (control), CUG, or GUG as the exclusive translation initiation sites. Co-transfected GFP reporter served as an internal control for transfection efficiency.
For the near-cognate AUG Starting codon fidelity reporter assay, HEK293T cells were transfected with 100 ng of the previously described luciferase reporter constructs driven either by AUG, CUG, and GUG (Tang et al, [2017]) together with GFP expressing plasmid (20 ng) as normalizing control. Luciferase and GFP levels were determined as described above.
Appendix Figure S1: (A) HEK293T cells were transfected with Luciferase reporter genes with either CUG or AUG as their exclusive starting codon. 6 hours after transfection, cells were exposed to 1Ais, and the luminescence from all constructs was measured after overnight incubation. Bars represent the ratio between luminescence from the AUG starting codon and CUG after normalization with co-transfected GFP; Error bars represent SEM, * denotes p<0.05 (T-test comparing to DMSO control), n=≥4 independent biological replicates.

NSP1 = NSP1 (Severe acute respiratory syndrome coronavirus 2, UniProt P0DTD1)
[5] = raw data calculation of one experiment, GFP normalized, AUG set to 100, compound marked (20)

| SMILES | IC50 (eIF1A-RPS10 interaction) | LONG (summary - All), normalized to DMSO ([2]; Long reporter, 20 µM) | SHORT (summary - All), normalized to DMSO ([2]; Short reporter, 20 µM) | average ( long vs short ratio) ([2]; 20 µM) | US/DS ratio, average [3] | CUG vs AUG (%) [4] | GUG vs AUG (%) [4] | GUG vs AUG data (%) ([4]; compound at 20uM) | GUG vs AUG (%) Average ([4]; compound at 20uM) | further results |
| --- | --- | --- | --- | --- | --- | --- | --- | --- | --- | --- |
| O=C(Nc1ccc(S(=O)(=O)NC23CC4CC(CC(C4)C2)C3)cc1)c1ccc(Cl)cc1 [1A-3638] |  |  |  |  |  |  |  |  |  | Weight of tumor, average ([1]; group average): 0.2614; Weight of tumor ([1]; individual animals): 0.6521 and 0.1855 and 0.085 and 0.0594 and 0.2257 and 0.0264 and 0.562 and 0.006 and 0.5508; Tumor weight p-value (t-test vs DMSO) ([1]; t.test vs DMSO): 0.005991 |
| COC(=O)C1=C(C)NC2=C(C(=O)CC(c3ccc(F)cc3)C2)C1c1ccc(N(C)C)cc1Cl (centres unmarked) [1Ai-9162] | 16 µM | 0.54 and 0.53 and 0.27 and 0.64 | 0.54 and 0.47 and 0.46 | 1.009 | 0.9825 | 9.614% | 2.083% | 2.05% and 2.20% and 2.48% and 2.61% | 2.33% |  |
| O=C(Nc1nc(-c2c[nH]c3ccccc23)cs1)c1cc(=O)[nH]c2ccccc12 [1Ai-0403] | 17 µM |  |  |  | 1.283 |  |  |  |  | LONG (summary - All), normalized to DMSO ([2]; Long reporter, 5 µM): 0.54 and 1.00 and 0.95; SHORT (summary - All), normalized to DMSO ([2]; Short reporter, 5 µM): 1.05 and 0.93 and 1.12; Long: Normalized to average DMSO ([2]; data section, Long reporter, GFP-corrected, 5 µM, per experiment): 0.5423 and 1 and 0.9496; Short: Normalized to average DMSO ([2]; data section, Short reporter, GFP-corrected, 5 µM, per experiment, includes values excluded as outliers): 1.05 and 0.9341 and 1.121; average ( long vs short ratio) ([2]; 5 µM): 0.803; GUG vs AUG data (%) ([4]; compound at 5uM): 1.56% and 2.09% and 1.50% and 2.83%; GUG vs AUG (%) Average ([4]; compound at 5uM): 1.99% |
| COc1ccc(CN(Cc2nn3c(=O)cc(C)nc3s2)C(C)Cc2cccs2)cc1 (centres unmarked) [1Ai-5751] | 18 µM | 0.26 and 0.28 and 0.72 and 0.89 and 0.77 and 0.31 | 0.74 and 0.11 and 0.73 and 0.61 and 0.46 and 0.21 | 1.128 | 1.056 |  |  | 1.65% and 1.59% and 3.31% and 1.26% | 1.95% | GFP reporter ratio nsp1/gfp, avg (NSP1): 0.4183; GFP reporter ratio nsp1/gfp, rep 1 (NSP1): 0.4426; GFP reporter ratio nsp1/gfp, rep 2 (NSP1): 0.3941; gfp signal, mean of duplicate wells (NSP1): 2691 and 4145; nsp1 signal, mean of duplicate wells (NSP1): 1060.5 and 1834.5; ratio (nsp1/gfp) (NSP1): 0.394 and 0.443; Long 5'UTR reporter luciferase activity, normalized to DMSO (=1), single replicates ([2]; compound at 20 µM, left data block (Long), source data of Fig 1C): 0.2584 and 0.2757 and 0.7216 and 0.8893 and 0.7688 and 0.3143 |
| O=S(=O)(Cc1cc(Cl)c2c(c1)OCCO2)Cc1nc(-c2ccccc2)no1 [1Ai-6476] | 15 µM | 0.42 and 1.63 and 1.39 and 0.53 | 0.36 and 1.11 and 1.08 and 0.95 | 1.134 | 0.719 |  |  | 1.75% and 1.69% and 1.77% and 1.59% | 1.70% | calculation: CUG (AUG = 100) [4, 5]: 6.068; calculation: GUG (AUG = 100) [4, 5]: 1.669 |
| O=C1c2ccccc2NC(c2cc(Cl)c3c(c2)OCO3)N1C1CC1 (centres unmarked) [1Ai-6586] | 24 µM | 0.0557 and 0.45 and 1.19 and 0.73 | 0.06 and 0.81 and 0.69 and 1.23 | 0.871 | 0.8389 | 6.859% | 1.078% | 1.26% and 0.96% and 1.21% and 1.81% | 1.31% |  |
